{"source": "paper PMC12498288", "about": "(Frontiers in Immunology, 2025)", "key": {"[1]": {"parameters": "method as in NCT04385420; EudraCT 2021-005225-25", "details": "two phase 1 studies in healthy volunteers, ref NCT04385420; EudraCT 2021-005225-25; cited from earlier work"}, "[2]": {"system": "Vero cells", "details": "Vero 24 h 5% FBS"}, "[3]": {"system": "human PBMCs", "assay": "Cytokine and chemokine levels in LPS-stimulated human PBMCs (ELISA)", "assay_type": "cell-based", "details": "1 µg/mL LPS, 10 µg/mL zapnometinib, 6 h, vs untreated control", "method": "Human peripheral blood mononuclear cells (PBMCs) were isolated from healthy volunteers registered with the Biobank of the Department of Immunology at the University of Tuebingen, after informed consent documented in writing. Ethical approval was obtained upon review by the Ethics Board of the Medical Faculty of the Eberhard Karls University Tuebingen and the University Hospital Tuebingen (887/2020BO2). Briefly, 50 ml whole blood (roughly 5x10^7 PBMCs) of two donors were taken in 50 ml syringes (BD Biosciences, Franklin Lakes, New Jersey, USA) supplied with heparin-natrium (100.000 I.E./ml; Braun, Melsungen, Germany). The whole blood was mixed with PBS (Gibco, Carlsbad, California, USA) in a 1:1 ratio in 50 ml tubes (Greiner Bio-One, Frickenhausen, Germany), and PBMCs were subsequently isolated from the whole blood by density gradient centrifugation using Histopaque®-1077 (Sigma-Aldrich, St. Louis, Missouri, USA) as density gradient medium. Five millilitres of plasma per donor were preserved for cell culture medium preparation. The PBMCs were then purified by washing them twice with PBS.\n2x10^6 human PBMCs from two donors each were suspended in 1 mL RPMI 1640 medium (Gibco) containing 5% autologous plasma, 1% penicillin/streptomycin (Sigma-Aldrich), and 1% L-glutamine (Sigma-Aldrich) and were treated with 1 μg/mL LPS from E. coli O55:B5 (prepared in PBS) and 10 μg/mL zapnometinib (prepared in DMSO and diluted in cell culture medium to a final concentration of 0.1% DMSO) for 6 h at 37°C and 5% CO2. The supernatants (cell culture medium) were collected and stored at -20°C until analysis by ELISA. Ready-to-use ELISA kits (Invitrogen, Waltham, Massachusetts, USA) were used according to the manufacturer’s instructions to determine the levels of the following cytokines: IL-1β, IL-6, IL-8, IP-10, MCP-1, MIP-1α, and TNF-α. Briefly, the samples and standards were applied to ELISA plates pre-coated with specific antibodies targeting the cytokines of interest. Biotinylated detection antibodies binding to the cytokines of interest were added to the wells followed by a horseradish peroxidase (HRP)-streptavidin conjugate, which binds to the biotinylated detection antibodies. Unbound cytokines, detection antibodies, and HRP-streptavidin conjugate were removed by washing. Tetramethylbenzidine (TMB) substrate was added, and the color change in the wells served as the readout for the ELISA. Optical density (OD) at 450 nm was measured using a SpectraMAX Plus 384 microplate reader. For IL-1β, IL-8, MCP-1, and TNF-α the OD was also read at a reference wavelength of 620 nm, and for IL-6 at a reference wavelength of 550 nm. For IP-10 and MIP-1α no reference wavelength was used. Cytokine and chemokine concentrations were calculated following the manufacturer’s instructions for interpolating unknown concentrations from a standard curve."}, "[4]": {"system": "cytokine and chemokine gene expression", "assay": "LPS-induced acute lung injury (ALI) mouse model, lung cytokine/chemokine mRNA (RT2 profiler PCR array)"}, "[5]": {"system": "HMGB1, GLDH, SELP", "assay": "Candidate safety biomarker analysis in hamster serum (IA-LC-MS/MS)", "assay_type": "in vivo, Syrian hamsters", "method": "Serum samples from hamsters collected at pre- infection (0 dpi) and post-infection (4 dpi) and treatment time points were analyzed to evaluate the levels of various candidate safety biomarkers. Serum proteins were enzymatically fragmented through proteolysis, and protein-specific peptides were targeted for quantification of the corresponding protein biomarker levels by immunoaffinity liquid chromatography tandem mass spectrometry (IA-LC-MS/MS) performed as described previously ([48], [49]). For further details, see Supplementary Methods .\nThe candidate protein biomarkers were quantified via specific peptides analyzed by immunoaffinity liquid chromatography tandem mass spectrometry (IA-LC-MS/MS) assays. For proteolysis, 10 μL of each serum sample was mixed with 50 μL of digestion buffer (100 mM triethanolamine and 0.5% (w/v) n-octylglucoside (NOG)), and proteolysis reagents were added to achieve a final sample volume of 100 µL. The proteolysis procedure included denaturation at 99 °C for 5 minutes, reduction in 5 mM tris(2-carboxyethyl)-phosphine at 22 °C for 5 minutes, alkylation in 10 mM iodoacetamide at 22 °C for 20 minutes and an overnight enzymatic fragmentation at 37 °C with a trypsin-to-protein ratio of 1:20 (assuming a concentration of 60 mg/mL protein in serum). […]\nThe following peptide transitions were monitored in the mass spectrometer : […] […]"}}, "note": "Like-named read-outs stand apart in the source and are kept apart here.", "data": [{"compound": "O=C(O)c1ccc(F)c(F)c1Nc1ccc(I)cc1Cl", "note": "[zapnometinib]", "values": [{"measurement": "toxicity and tolerability in humans", "setting": "[1]", "result": "showed no toxicity and was well tolerated"}, {"measurement": "%LDH release compared to maximum LDH release", "setting": "[2]; 0.39 µM", "result": 0.35, "unit": "%"}, {"measurement": "%LDH release compared to maximum LDH release", "setting": "[2]; 0.78 µM", "result": 0.41, "unit": "%"}, {"measurement": "%LDH release compared to maximum LDH release", "setting": "[2]; 1.56 µM", "result": 0.41, "unit": "%"}, {"measurement": "%LDH release compared to maximum LDH release", "setting": "[2]; 3.13 µM", "result": -0.37, "unit": "%"}, {"measurement": "%LDH release compared to maximum LDH release", "setting": "[2]; 6.25 µM", "result": 0.02, "unit": "%"}, {"measurement": "%LDH release compared to maximum LDH release", "setting": "[2]; 12.50 µM", "result": 0.31, "unit": "%"}, {"measurement": "%LDH release compared to maximum LDH release", "setting": "[2]; 25.00 µM", "result": 0.12, "unit": "%"}, {"measurement": "%LDH release compared to maximum LDH release", "setting": "[2]; 50.00 µM", "result": 0.49, "unit": "%"}, {"measurement": "%LDH release compared to maximum LDH release", "setting": "[2]; 75.00 µM", "result": 0.83, "unit": "%"}, {"measurement": "%LDH release compared to maximum LDH release", "setting": "[2]; 100.00 µM", "result": 1.44, "unit": "%"}, {"measurement": "IL-1β expression level", "setting": "[3]", "result": "significantly reduced"}, {"measurement": "IL-6 expression level", "setting": "[3]", "result": "significantly reduced"}, {"measurement": "IL-8 expression level", "setting": "[3]", "result": "significantly reduced"}, {"measurement": "IP-10 expression level", "setting": "[3]", "result": "significantly reduced"}, {"measurement": "MCP-1 expression level", "setting": "[3]", "result": "significantly reduced"}, {"measurement": "MIP-1α expression level", "setting": "[3]", "result": "significantly reduced"}, {"measurement": "TNF-α expression level", "setting": "[3]", "result": "significantly reduced"}, {"measurement": "expression of most of the 84 genes (e.g. Il1b, IL-6, ccl2, cxcl1, cxcl10, ccl3)", "setting": "[4]; 5 mg/kg LPS i.p., 25 mg/kg p.o. 1 h post-stimulation, lung, 6 h post treatment, vs control", "result": "downregulated"}, {"measurement": "Cxcl1 gene expression in lung tissue", "setting": "[4]; 25 mg/kg p.o. 1 h after LPS", "result": "significantly reduced"}, {"measurement": "Il6 gene expression in lung tissue", "setting": "[4]; 25 mg/kg p.o. 1 h after LPS", "result": "significantly reduced"}, {"measurement": "Tnf gene expression in lung tissue", "setting": "[4]; 25 mg/kg p.o. 1 h after LPS", "result": "significantly reduced"}, {"measurement": "Ifna2 gene (IFN-α) expression", "setting": "[4]; 25 mg/kg p.o. 1 h after LPS, lung, p = 0.118", "result": "not significantly downregulated"}, {"measurement": "levels of safety biomarkers HMGB1, GLDH, SELP in serum", "setting": "[5]; 0 dpi vs 4 dpi, 100 mg/kg then 75 mg/kg from +4 or +24 h p.i.", "result": "no prominent changes"}, {"measurement": "toxicity of the treatment regimen", "setting": "[5]; 100 mg/kg followed by 75 mg/kg beginning at +4 or +24 h p.i.", "result": "not toxic"}]}]}
